Test results reported in ChEMBL document CHEMBL3046918, “Conventional and microwave-assisted synthesis of imidazole and guanidine derivatives and their biological evaluation” (2011).
Where a name gives a salt, the structure may show the parent alone.

Legend:
Format in all cases: functional
SF-295 = assay: Growth inhibition of Homo sapiens (human) SF295 cells at 10^-5 M after 48 hr by SRB assay; conditions: SF-295, 48 h, read-out: GI
PC-3 = assay: Growth inhibition of Homo sapiens (human) PC3 cells at 10^-5 M after 48 hr by SRB assay; conditions: PC-3, 48 h, read-out: GI
MCF7 = assay: Growth inhibition of Homo sapiens (human) MCF7 cells at 10^-5 M after 48 hr by SRB assay; conditions: MCF7, 48 h, read-out: GI
HOP-62 = assay: Growth inhibition of Homo sapiens (human) HOP62 cells at 10^-5 M after 48 hr by SRB assay; conditions: HOP-62, 48 h, read-out: GI
IGROV-1 = assay: Growth inhibition of Homo sapiens (human) IGROV1 cells at 10^-5 M after 48 hr by SRB assay; conditions: IGROV-1, 48 h, read-out: GI
A549 = assay: Growth inhibition of Homo sapiens (human) A549 cells at 10^-5 M after 48 hr by SRB assay; conditions: A549, 48 h, read-out: GI
Rattus norvegicus = assay: Anti-inflammatory activity in Rattus norvegicus Charles Foster albino (rat) assessed as inhibition of carrageenan-induced paw edema at 50 mg/kg, po administered 30 min prior to carrageenan-challenge measured up to 3 hr relative to control; parameters: scale not given: the % may be the effect or the level left

Compound | inhibition of growth at 10 µM (SF-295) | inhibition of growth at 10 µM (PC-3) | inhibition of growth at 10 µM (MCF7) | inhibition of growth at 10 µM (HOP-62) | inhibition of growth at 10 µM (IGROV-1) | inhibition of growth at 10 µM (A549) | Activity (Rattus norvegicus)
O=C1c2ccccc2C(=O)c2c1ccc1nc(-c3cccc4ccccc34)[nH]c21 | 81% | 71% | 76% | 61% | 71% | 93% | 14%
Cc1ccsc1-c1nc2ccc3c(c2[nH]1)C(=O)c1ccccc1C3=O | 30% | 16% | 36% | 19% | 6% | 15% | 16%
Cc1ccc(-c2nc3ccc4c(c3[nH]2)C(=O)c2ccccc2C4=O)s1 | 43% | 14% | 47% | 6% | 8% | 35% | 26%
Cn1cccc1-c1nc2ccc3c(c2[nH]1)C(=O)c1ccccc1C3=O | 52% | 28% | 72% | 11% | 27% | 31% | 34%
O=C1c2ccccc2C(=O)c2c1ccc1nc(-c3ccc4ccccc4c3)[nH]c21 | 34% | 15% | 26% | 9% | 9% | 2% | 35%
O=C1c2ccccc2C(=O)c2c1ccc1nc(-c3c(O)ccc4ccccc34)[nH]c21 | 92% | 87% | 61% | 78% | 82% | 97% | 22%
Cc1ccsc1-c1nc2cc3nc4ccccc4nc3cc2[nH]1 | 28% | 12% | 17% | 4% | 30% | 27% | 38%
Cc1ccc(-c2nc3cc4nc5ccccc5nc4cc3[nH]2)s1 | 32% | 29% | 56% | 20% | 18% | 53% | 10%
Cn1cccc1-c1nc2cc3nc4ccccc4nc3cc2[nH]1 | 40% | 43% | 41% | 12% | 26% | 36% | 14%
c1ccc2c(-c3nc4cc5nc6ccccc6nc5cc4[nH]3)cccc2c1 | 100% | 97% | 88% | 98% | 92% | 97% | 19%
c1ccc2cc(-c3nc4cc5nc6ccccc6nc5cc4[nH]3)ccc2c1 | 20% | 22% | 29% | 9% | 19% | 26% | 28%
Oc1ccc2ccccc2c1-c1nc2cc3nc4ccccc4nc3cc2[nH]1 | 97% | 81% | 84% | 90% | 84% | 87% | 30%
Cc1ccsc1/C=N\C(=N)Nc1nc2ccccc2[nH]1 | 40% | 10% | 9% | 13% | 17% | 3% | 38%
Cc1ccc(/C=N\C(=N)Nc2nc3ccccc3[nH]2)s1 | 36% | 8% | 0% | 14% | 20% | 13% | 24%
Cn1cccc1/C=N/C(=N)Nc1nc2ccccc2[nH]1 | 40% | 1% | 24% | 28% | 23% | 12% | 0%
N=C(/N=C/c1cccc2ccccc12)Nc1nc2ccccc2[nH]1 | 40% | 13% | 25% | 26% | 13% | 9% | 34%
N=C(/N=C\c1ccc2ccccc2c1)Nc1nc2ccccc2[nH]1 | 42% | 10% | 6% | 18% | 26% | 8% | 26%
N=C(/N=C/c1c(O)ccc2ccccc12)Nc1nc2ccccc2[nH]1 | 34% | 15% | 4% | 9% | 23% | 2% | 0%
COc1cccc2c1C(=O)c1c(O)c3c(c(O)c1C2=O)C[C@@](O)(C(=O)CO)C[C@@H]3O[C@H]1C[C@H](N)[C@H](O)[C@H](C)O1 [DOXORUBICIN HYDROCHLORIDE] | 69% |  | 72% | 32% | 39% | 27% | 
CO[C@@]12[C@H](COC(N)=O)C3=C(C(=O)C(C)=C(N)C3=O)N1C[C@@H]1N[C@@H]12 [MITOMYCIN] | 43% | 61% |  |  | 47% |  | 
CC(=O)O[C@H]1C(=O)[C@@]2(C)[C@H]([C@H](OC(=O)c3ccccc3)[C@]3(O)C[C@H](OC(=O)[C@H](O)[C@@H](NC(=O)c4ccccc4)c4ccccc4)C(C)=C1C3(C)C)[C@]1(OC(C)=O)CO[C@@H]1C[C@@H]2O [PACLITAXEL] |  |  |  | 37% | 37% | 54% | 
